Test results taken from patent publication US6472526B1, “Imidazole derivatives having an inhibitory activity for farnesyl transferase and process for preparation thereof” (LG Chemical Ltd., priority 1997, dated 2002).

Key:
[1] = target: T1, Ras farnesyl transferase (Rattus norvegicus, UniProt Q02293+Q04631); assay: In vivo (cellular) inhibitory activity for Ras farnesyl transferase, Rat2 cell line transformed with fused protein of H-Ras substituted with polybasic lysine domain at C-terminus of K-Ras; assay type: cell-based
T1 construct: endogenous in cells; host or cells: Rat2 fibroblasts transformed with H-Ras or with an H-Ras/K-Ras C-terminus fusion
In short: (§1)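 Farnesylated versus unfarnesylated Ras bands were measured by autoradiography after Y13-259 immunoprecipitation and SDS-PAGE, giving CIC50 as 50% inhibition of farnesylation. Rat2 cells expressing H-Ras or an H-Ras fusion with K-Ras polybasic C-terminus got compound (1% DMSO), then [35S]methionine from 4 h onward for 20 h.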

[2] = target: T1, Ras farnesyl transferase; assay: In vivo (cellular) inhibitory activity for Ras farnesyl transferase, Rat2 cell line which expresses C-Harvey-Ras protein; assay type: cell-based
In short: as §1

[3] = target: T2, Ras farnesyl transferase (Homo sapiens, UniProt P49354+P49356); assay: In vitro inhibitory activity for Ras farnesyl transferase, K-Ras substrate; assay type: biochemical
T2 construct: made in house

[4] = target: T2, Ras farnesyl transferase; assay: In vitro inhibitory activity for Ras farnesyl transferase, H-Ras substrate; assay type: biochemical
[5] = Rat2 cell line transformed with H-Ras fused with polybasic lysine domain of K-Ras C-terminus, concentration inhibiting 50% of farnesyl bonding, read-out: K-Ras CIC50
[6] = Rat2 cell line expressing C-Harvey-Ras, concentration inhibiting 50% of farnesyl bonding of Ras protein, read-out: H-Ras CIC50
[7] = in vitro farnesyl transferase assay, K-Ras, read-out: K-Ras IC50
[8] = recombinant farnesyl transferase 4.5 nM, Ras substrate protein 1.5 μM, tritium-farnesylpyrophosphate 0.15 μM, 30 minutes at 37° C., read-out: H-Ras IC50

| Compound | IC50 [1, 5] [nM] | IC50 [2, 6] [nM] | IC50 [3, 7] [nM] | IC50 [4, 8] [nM] | IC50 [1] [nM] | IC50 [2] [nM] | IC50 [3] [nM] | IC50 [4] [nM] |
| --- | --- | --- | --- | --- | --- | --- | --- | --- |
| CC(C)C[C@H](NC(=O)c1cn(Cc2cncn2Cc2ccc(C#N)cc2)cc1-c1cccc2ccccc12)C(=O)O [Compound 103] | 10000 to 100000 | 100 to 10000 | 1700 | 64 |  |  |  |  |
| COCCN(C)C(=O)c1cn(Cc2cncn2Cc2ccc(Br)cc2)cc1C(=O)c1cccc2ccccc12 [Compound 141] |  |  |  |  | 10000 to 50000 | 1000 to 10000 | 10000 to 100000 | 230 |
| COCCN(C)C(=O)c1cn(Cc2cncn2[C@@H](C)c2ccccc2)cc1-c1cccc2ccccc12 [Compound 11] | 10000 to 50000 | 25 | 8 | 4 |  |  |  |  |
| O=C(c1ccsc1)c1cn(Cc2c[nH]cn2)cc1-c1cccc2ccccc12 [Compound 45] | 10000 to 100000 | 1000 to 50000 | 100 to 10000 | 130 |  |  |  |  |
| CN1CCN(C(=O)c2cn(Cc3cncn3CCc3ccc4ccccc4c3)cc2-c2cccc3ccccc23)CC1 [Compound 42, 3-[4-Methylpiperazin-1-yl]carbonyl-4-(naphthalen-1-yl)-1-{1-[2-(naphthalen-2-yl)ethyl]-1H-imidazol-5-yl}methyl-1H-pyrrole] | 10000 to 50000 | 15 | 3 | 4 |  |  |  |  |
| O=C(c1cn(Cc2c[nH]cn2)cc1-c1cccc2ccccc12)N1CCSC1 [Compound 90] | 10000 to 100000 | 1000 to 50000 | 100 to 10000 | 42.5 |  |  |  |  |
| CN1CCN(C(=O)c2cn(Cc3cncn3CCc3ccccc3F)cc2-c2cccc3ccccc23)CC1 [Compound 22, 1-[1-(2-Fluoro)phenethyl-1H-imidazol-5-yl]methyl-3-[4-methylpiperazin-1-yl]carbonyl-4-(naphthalen-1-yl)-1H-pyrrole] | 10000 to 50000 | 20 | 2 | 1 |  |  |  |  |
| O=C(c1cn(Cc2c[nH]cn2)cc1-c1cccc2ccccc12)N1CCOCC1 [Compound 85] | > 50000 | 4000 | 100 to 10000 | 30 |  |  |  |  |
| COCCN(C)C(=O)c1cn(Cc2cncn2CCc2ccccc2F)cc1-c1cccc2ccccc12 [Compound 21, 1-[1-(2-Fluoro)phenethyl-1H-imidazol-5-yl]methyl-3-[N-(2-methoxyethyl)-N-methyl]carbamoyl-4-(naphthalen-1-yl)-1H-pyrrole] | 10000 to 50000 | 21 | 1 | 1 |  |  |  |  |
| Cc1ccc(C(=O)c2cn(Cc3c[nH]cn3)cc2-c2cn(C)c3ccccc23)cc1 [Compound 70] | 10000 to 100000 | 1000 to 50000 | 100 to 10000 | 210 |  |  |  |  |
| O=C(c1cn(Cc2c[nH]cn2)cc1-c1cccc2ccccc12)c1cccc2ccccc12 [Compound 69] |  |  |  |  | 10000 to 100000 | 1000 to 50000 | 100 to 10000 | 550 |
| COC(=O)c1sc(Cc2cncn2Cc2ccc(Cl)cc2)nc1-c1cccc2ccccc12 [Compound 148] | > 50000 | 30000 | > 50000 | 1700 |  |  |  |  |
| CN(CCO)C(=O)c1cn(Cc2c[nH]cn2)cc1-c1cccc2ccccc12 [Compound 94] | 10000 to 100000 | 1000 to 50000 | 100 to 10000 | 200 |  |  |  |  |
| COC(=O)c1nc(Cc2cncn2Cc2ccc(Cl)cc2)sc1-c1cccc2ccccc12 [Compound 145, 2-[1-(4-Chlorobenzyl)-1H-imidazol-5-ylmethyl]-4-methoxycarbonyl-5-(naphthalen-1-yl)thiazole] | 25000 | 100 | 70 | 7 |  |  |  |  |
| COc1ccc(Cn2cncc2Cn2cc(C(=O)N3CCN(C)CC3)c(-c3cccc4ccccc34)c2)cc1 [Compound 130, 1-[1-(4-Methoxybenzyl)-1H-imidazol-5-yl] methyl-3-(4-methylpiperazin-1-yl)carbonyl-4-(naphthalen-1-yl)-1H-pyrrole] | 10000 to 50000 | 25 | 3 | 2 |  |  |  |  |
| O=C(c1cn(Cc2c[nH]cn2)cc1-c1ccc2c3c(cccc13)CC2)N1CCOCC1 [Compound 97] | 10000 to 100000 | 10000 to 100000 | 10000 to 100000 | 12000 |  |  |  |  |
| Cc1ccccc1C(=O)c1cn(Cc2c[nH]cn2)cc1-c1cccc2ccccc12 [Compound 50] | 10000 to 100000 | 1000 to 50000 | 100 to 10000 | 150 |  |  |  |  |
| COc1ccc(CCn2cncc2Cn2cc(C(=O)N3CCN(C)CC3)c(-c3cccc4ccccc34)c2)cc1 [Compound 20, 1-[1-(4-Methoxy)phenethyl-1H-imidazol-5-yl]methyl-3-[4-methylpiperazin-1-yl]carbonyl-4-(naphthalen-1-yl)-1H-pyrrole] | 10000 to 50000 | 20 | 2 | 1 |  |  |  |  |
| Cc1cccc(C(=O)c2cn(Cc3c[nH]cn3)cc2-c2cccc3ccccc23)c1 [Compound 51] | 10000 to 100000 | 1000 to 50000 | 100 to 10000 | 270 |  |  |  |  |
| Cc1cccc(Cn2cncc2Cn2cc(C(=O)N3CCN(C)CC3)c(-c3cccc4ccccc34)c2)c1 [Compound 138, 1-[1-(3-Methylbenzyl)-1H-imidazol-5-yl]methyl-3-(4-methylpiperazin-1-yl)carbonyl-4-(naphthalen-1-yl)-1H-pyrrole] | 10000 to 50000 | 25 | 3.5 | 1.4 |  |  |  |  |
| O=C(c1cn(CCCc2c[nH]cn2)cc1-c1cccc2ccccc12)N1CCOCC1 [Compound 109] | 10000 to 100000 | 1000 to 50000 | 1000 to 50000 | 8600 |  |  |  |  |
| CN1CCN(C(=O)c2cn(Cc3cncn3CCc3ccc(O)cc3)cc2-c2cccc3ccccc23)CC1 [Compound 43, 1-[1-(4-Hydroxy)phenethyl-1H-imidazol-5-yl]methyl-3-[4-mmethylpiperazin-1-yl]carbonyl-4-(naphthalen-1-yl)-1H-pyrrole] | 5000 to 10000 | 15 | 2 | 1 |  |  |  |  |
| COCCN(C)C(=O)c1cn(Cc2cncn2CCc2cccc(Cl)c2)cc1-c1cccc2ccccc12 [Compound 25, 1-[1-(3-Chloro)phenethyl-1H-imidazol-5-yl]methyl-3-[N-(2-methoxyethyl)-N-methyl]carbamoyl-4-(naphthalen-1-yl)-1H-pyrrole] | 10000 to 50000 | 15 | 5 | 2 |  |  |  |  |
| CN1CCN(C(=O)c2cn(Cc3cncn3Cc3ccc4c(c3)OCO4)cc2-c2cccc3ccccc23)CC1 [Compound 3, 1-[1-(3,4-Methylenedioxybenzyl)-1H-imidazol-5-ylmethyl]-3-(4-methylpiperazin-1-yl)carbonyl-4-(naphthalen-1-yl)-1H-pyrrole] | 15000 | 25 | 2.4 | 1 |  |  |  |  |
| N#Cc1ccc(Cn2cncc2Cn2cc(C(=O)N3CCOCC3)c(-c3cccc4ccccc34)c2)cc1 [Compound 104] | < 10000 | < 50 | 6 | 0.5 |  |  |  |  |
| O=C(c1cn(Cc2c[nH]cn2)cc1-c1cccc2ccccc12)N1CCNCC1 [Compound 88] | 10000 to 100000 | 1000 to 50000 | 100 to 10000 | 600 |  |  |  |  |
| O=C(c1cccs1)c1cn(Cc2c[nH]cn2)cc1-c1cccc2ccccc12 [Compound 44, 1-(1H-Imidazol-4-yl)methyl-4-(naphthalen-1-yl)-3-(thiophen-2-yl)carbonyl-1H-pyrrole] | 10000 to 100000 | 1000 to 50000 | 100 to 10000 | 250 |  |  |  |  |
